Laboratory results taken from the NIST ThermoML archive (doi:10.1016/j.fluid.2016.02.035).

Experiment: mn = molality of the nth substance listed, in mol/kg
Conditions: 101 kPa, Liquid; for speed of sound: Sing-around technique in a fixed-path interferometer; for mass density: Vibrating tube method

CCCC[N+](CCCC)(CCCC)CCCC.[Br-] [tetrabutylammonium bromide] + O
Conditions | mass density, 293.15 K [kg/m3] | mass density, 298.15 K [kg/m3] | mass density, 303.15 K [kg/m3] | speed of sound, 293.15 K [m/s] | speed of sound, 298.15 K [m/s] | speed of sound, 303.15 K [m/s]
m1 = 0.0015 | 998.245 | 997.085 | 995.686 | 1483.3 | 1497.3 | 1509.6
m1 = 0.0047 | 998.318 | 997.156 | 995.754 | 1484.1 | 1498.2 | 1510.3
m1 = 0.0061 | 998.352 | 997.187 | 995.785 | 1484.6 | 1498.6 | 1510.7
m1 = 0.013 | 998.509 | 997.335 | 995.926 | 1486.1 | 1500 | 1512.1
m1 = 0.0183 | 998.632 | 997.458 | 996.041 | 1487.7 | 1501.4 | 1513.3
m1 = 0.026 | 998.809 | 997.626 | 996.204 | 1489.5 | 1503.1 | 1514.9
m1 = 0.031 | 998.934 | 997.744 | 996.318 | 1490.9 | 1504.3 | 1516.1
m1 = 0.0492 | 999.359 | 998.14 | 996.704 | 1495.1 | 1508.4 | 1519.8
m1 = 0.0796 | 1000.08 | 998.844 | 997.37 | 1502.6 | 1515.2 | 1526.2
m1 = 0.0997 | 1000.55 | 999.297 | 997.802 | 1507.5 | 1519.7 | 1530.3
m1 = 0.1118 | 1000.85 | 999.574 | 998.068 | 1510.4 | 1522.4 | 1532.8
m1 = 0.1291 | 1001.26 | 999.966 | 998.443 | 1514.5 | 1526.2 | 1536.2
m1 = 0.1464 | 1001.68 | 1000.37 | 998.826 | 1518.5 | 1529.9 | 1539.7
m1 = 0.1626 | 1002.06 | 1000.73 | 999.177 | 1522.2 | 1533.3 | 1542.8
m1 = 0.1952 | 1002.85 | 1001.49 | 999.897 | 1529.5 | 1540.1 | 1548.9
m1 = 0.2309 | 1003.71 | 1002.3 | 1000.67 | 1537.5 | 1547.3 | 1555.6
m1 = 0.2732 | 1004.73 | 1003.27 | 1001.6 | 1546.5 | 1555.7 | 1563.3
m1 = 0.3073 | 1005.55 | 1004.05 | 1002.33 | 1553.8 | 1562.3 | 1569.3
m1 = 0.3449 | 1006.43 | 1004.88 | 1003.12 | 1561.7 | 1569.5 | 1575.8
m1 = 0.5437 | 1011.1 | 1009.3 | 1007.29 | 1599.5 | 1603.7 | 1606.7
m1 = 0.7712 | 1016.12 | 1014.01 | 1011.73 | 1636 | 1636.3 | 1635.7
